# Measured values published in patent US7709444B2, “Echinocandin pharmaceutical formulations containing micelle-forming surfactants” (Pfizer Inc., priority 1999, dated 2010).
# *1 amine or outer side, *2 acyl side, *3 side chain or, on linkers, in order; H or OH if unused. Where a SMILES comes first, the peptide text is derived from it. Bridges are numbered along the chain shown (N, C = ends). [ ]: non-standard residue; d: D form. The star is where a group is joined. ξ: configuration not given here. pTerphenylCO(4''-OnC5H11) = CCCCCOc1ccc(-c2ccc(-c3ccc(C(=O)*)cc3)cc2)cc1; ξOrn(4,5-diOH) = O=C(C(CC(O)C(O)N[*:3])N[*:1])[*:2]; ξhTyr(βξ-OH,γξ-OH) = NC(C(=O)O)C(O)C(O)c1ccc(O)cc1; ξPro(3ξ-OH,4ξ-Me) = CC1CNC(C(=O)O)C1O; Hyp = O=C(O)[CH]1C[CH](O)CN1
# Columns and labels:
# [1] = Stability of solution formulations, related substances by reverse phase HPLC, storage at 40° C.; assay type: physicochemical
# Experimental: The stability of solution and freeze-dried formulations was evaluated by monitoring a sample of the formulation for the percent increase in related substances by reverse phase HPLC at initial, 2 weeks and 4 weeks of storage at 40° C.
# [2] = Solubility studies of Com 6(a) in surfactant test solutions, reverse phase HPLC; assay type: physicochemical; settings: room temperature
# Experimental: Solubility studies were performed at room temperature by transferring 5 ml of test solution (surfactant in water optionally containing a bulking agent, a buffer or a stabilizing agent) and 50 mg of Com 6(a) into a glass test tube. The test tubes were agitated overnight and examined for excess solid. Test tubes containing excess solid were removed for analysis. […] All samples were allowed to stand 1 h, supernatant was removed, filtered and analyzed by reverse phase HPLC to determine the potency of Com 6(a) per Ml of solution.
smiles,measurement,setting,value
"CCCCCOc1ccc(-c2ccc(-c3ccc(C(=O)NC4CC(O)C(O)NC(=O)C5C(O)C(C)CN5C(=O)C(C(C)O)NC(=O)C(C(O)C(O)c5ccc(O)cc5)NC(=O)C5CC(O)CN5C(=O)C(C(C)O)NC4=O)cc3)cc2)cc1 (stereo not drawn) [Compound 6(a)] ({pTerphenylCO(4''-OnC5H11)}-[ξOrn(4,5-diOH)]T[Hyp][ξhTyr(βξ-OH,γξ-OH)]T[ξPro(3ξ-OH,4ξ-Me)]; lactam 1-C; configuration not given here)",Percent Related Substances,"[1]; 6(a) 1 mg/ml, Poly 80(25), Ace(0.6), Man(50), 0 wks",3.15%
same,Percent Related Substances,"[1]; 6(a) 1 mg/ml, Poly 80(25), Ace(0.6), Man(50), 2 wks",11.37%
same,Percent Related Substances,"[1]; 6(a) 1 mg/ml, Poly 80(25), Ace(0.6), Man(50), 4 wks",19.44%
same,Percent Related Substances,"[1]; 6(a) 1 mg/ml, Poly 80(25), Ace(3), Man(50), 0 wks",3.33%
same,Percent Related Substances,"[1]; 6(a) 1 mg/ml, Poly 80(25), Ace(3), Man(50), 2 wks",12.20%
same,Percent Related Substances,"[1]; 6(a) 1 mg/ml, Poly 80(25), Ace(3), Man(50), 4 wks",18.29%
same,Percent Related Substances,"[1]; 6(a) 1 mg/ml, Poly 80(25), Ace(6), Man(50), 0 wks",3.27%
same,Percent Related Substances,"[1]; 6(a) 1 mg/ml, Poly 80(25), Ace(6), Man(50), 2 wks",11.07%
same,Percent Related Substances,"[1]; 6(a) 1 mg/ml, Poly 80(25), Ace(6), Man(50), 4 wks",19.59%
same,Percent Related Substances,"[1]; 6(a) 1 mg/ml, Poly 80(25), Cit(1.9), Man(50), 0 wks",3.42%
same,Percent Related Substances,"[1]; 6(a) 1 mg/ml, Poly 80(25), Cit(1.9), Man(50), 2 wks",8.91%
same,Percent Related Substances,"[1]; 6(a) 1 mg/ml, Poly 80(25), Cit(1.9), Man(50), 4 wks",18.04%
same,Percent Related Substances,"[1]; 6(a) 1 mg/ml, Poly 80(25), Cit(9.6), Man(50), 0 wks",3.36%
same,Percent Related Substances,"[1]; 6(a) 1 mg/ml, Poly 80(25), Cit(9.6), Man(50), 2 wks",9.25%
same,Percent Related Substances,"[1]; 6(a) 1 mg/ml, Poly 80(25), Cit(9.6), Man(50), 4 wks",17.29%
same,Percent Related Substances,"[1]; 6(a) 1 mg/ml, Poly 80(25), Cit(19.2), Man(50), 0 wks",3.47%
same,Percent Related Substances,"[1]; 6(a) 1 mg/ml, Poly 80(25), Cit(19.2), Man(50), 2 wks",9.70%
same,Percent Related Substances,"[1]; 6(a) 1 mg/ml, Poly 80(25), Cit(19.2), Man(50), 4 wks",18.02%
same,Percent Related Substances,"[1]; 6(a) 10 mg/ml, Poly 80(5) + Poly 20(20), Ace(6), 0 wks",2.67%
same,Percent Related Substances,"[1]; 6(a) 10 mg/ml, Poly 80(5) + Poly 20(20), Ace(6), 2 wks",9.77%
same,Percent Related Substances,"[1]; 6(a) 10 mg/ml, Poly 80(5) + Poly 20(20), Ace(6), 4 wks",15.57%
same,Percent Related Substances,"[1]; 6(a) 10 mg/ml, Poly 80(15) + Poly 20(10), Ace(6), 0 wks",2.70%
same,Percent Related Substances,"[1]; 6(a) 10 mg/ml, Poly 80(15) + Poly 20(10), Ace(6), 2 wks",10.55%
same,Percent Related Substances,"[1]; 6(a) 10 mg/ml, Poly 80(15) + Poly 20(10), Ace(6), 4 wks",15.34%
same,Percent Related Substances,"[1]; 6(a) 10 mg/ml, Poly 80(20) + Poly 20(5), Ace(6), 0 wks",2.65%
same,Percent Related Substances,"[1]; 6(a) 10 mg/ml, Poly 80(20) + Poly 20(5), Ace(6), 2 wks",11.06%
same,Percent Related Substances,"[1]; 6(a) 10 mg/ml, Poly 80(20) + Poly 20(5), Ace(6), 4 wks",15.44%
same,Percent Related Substances,"[1]; 6(a) 10 mg/ml, Poly 80(25) only, no buffer, 0 wks",3.62%
same,Percent Related Substances,"[1]; 6(a) 10 mg/ml, Poly 80(25) only, no buffer, 2 wks",18.71%
same,Percent Related Substances,"[1]; 6(a) 10 mg/ml, Poly 80(25) only, no buffer, 4 wks",27.91%
same,Percent Related Substances,"[1]; 6(a) 10 mg/ml, Poly 80(25), Ace(3), 0 wks",2.51%
same,Percent Related Substances,"[1]; 6(a) 10 mg/ml, Poly 80(25), Ace(3), 2 wks",9.46%
same,Percent Related Substances,"[1]; 6(a) 10 mg/ml, Poly 80(25), Ace(3), 4 wks",14.39%
same,Percent Related Substances,"[1]; 6(a) 10 mg/ml, Poly 80(25), Ace(6), co-solvent 20% PEG400, 0 wks",2.83%
same,Percent Related Substances,"[1]; 6(a) 10 mg/ml, Poly 80(25), Ace(6), co-solvent 20% PEG400, 2 wks",9.69%
same,Percent Related Substances,"[1]; 6(a) 10 mg/ml, Poly 80(25), Ace(6), co-solvent 20% PEG400, 4 wks",14.35%
same,Percent Related Substances,"[1]; 6(a) 10 mg/ml, Poly 80(25), Ace(6), co-solvent 20% PPG, 0 wks",2.71%
same,Percent Related Substances,"[1]; 6(a) 10 mg/ml, Poly 80(25), Ace(6), co-solvent 20% PPG, 2 wks",10.58%
same,Percent Related Substances,"[1]; 6(a) 10 mg/ml, Poly 80(25), Ace(6), co-solvent 20% PPG, 4 wks",13.40%
same,Percent Related Substances,"[1]; 6(a) 10 mg/ml, Poly 80(25), Ace(6), co-solvent 40% PEG400, 0 wks",2.57%
same,Percent Related Substances,"[1]; 6(a) 10 mg/ml, Poly 80(25), Ace(6), co-solvent 40% PEG400, 2 wks",10.38%
same,Percent Related Substances,"[1]; 6(a) 10 mg/ml, Poly 80(25), Ace(6), co-solvent 40% PEG400, 4 wks",13.36%
same,Percent Related Substances,"[1]; 6(a) 10 mg/ml, Poly 80(25), Ace(6), co-solvent 40% PPG, 0 wks",2.72%
same,Percent Related Substances,"[1]; 6(a) 10 mg/ml, Poly 80(25), Ace(6), co-solvent 40% PPG, 2 wks",9.84%
same,Percent Related Substances,"[1]; 6(a) 10 mg/ml, Poly 80(25), Ace(6), co-solvent 40% PPG, 4 wks",12.65%
same,Percent Related Substances,"[1]; 6(a) 10 mg/ml, Poly 80(25), no buffer, Man(50), 0 wks",3.68%
same,Percent Related Substances,"[1]; 6(a) 10 mg/ml, Poly 80(25), no buffer, Man(50), 2 wks",16.65%
same,Percent Related Substances,"[1]; 6(a) 10 mg/ml, Poly 80(25), no buffer, Man(50), 4 wks",23.68%
same,Percent Related Substances,"[1]; 6(a) 10 mg/ml, Poly 80(25), no buffer, co-solvent 1% PEG 3350, 0 wks",3.68%
same,Percent Related Substances,"[1]; 6(a) 10 mg/ml, Poly 80(25), no buffer, co-solvent 1% PEG 3350, 2 wks",21.56%
same,Percent Related Substances,"[1]; 6(a) 10 mg/ml, Poly 80(25), no buffer, co-solvent 40% PEG 400, 0 wks",3.73%
same,Percent Related Substances,"[1]; 6(a) 10 mg/ml, Poly 80(25), no buffer, co-solvent 40% PEG 400, 2 wks",15.26%
same,Percent Related Substances,"[1]; 6(a) 10 mg/ml, Poly 80(25), no buffer, co-solvent 40% PEG 400, 4 wks",23.99%
same,Comp6(a) Potency (solubility),[2]; Poly 20 [5]/Poly 80 [5],4800 µg/mL
same,Comp6(a) Potency (solubility),[2]; Poly 20 [5]/Poly 80 [10],8000 µg/mL
